What all share (format): in vivo
One assay has as its system Plutella xylostella. The experiment in a line: Leaf dip method (cabbage leaves) with Bacillus thuringiensis against Plutella xylostella (Example F). The settings on record: single, 0.1 ppm, 72 h. The procedure:
(§1) The leaf dip method was used, wherein the required quantity of the compounds were weighed and dissolved in a test solution prepared in tubes. The tubes were put on a vortex at 2000 rpm for 90 min for proper mixing and then, for the single compounds, diluted with a 0.01% Triton-X solution, for the combinations, diluted with a 0.01% Triton-X solution containing formulated Bt, to get the desired test concentration. Cabbage leaves were dipped in the solution for 10 seconds, shade dried for 20 min and then transferred to single cells of bioassay trays. A single second instar larva was released into each cell and the tray was covered with a lid. The bio-assay trays were kept under laboratory conditions at a temperature of 25° C. and relative humidity of 70%. Observations on dead, moribund and live larvae were recorded 72 h after the release. Percent mortality was calculated by combining dead and moribund larvae and comparing the results to the one of the untreated control. The results have been described for compound of formula (I-III) in Table F.

Assay [1] relates to Spodoptera litura. Briefly: Leaf dip method (tomato leaves) with Bacillus thuringiensis against Spodoptera litura (Example E). The settings on record: single, 0.1 ppm, 72 h. As for the experimental part:
as §1, with “test concentration. Tomato leaves were” for “test concentration. Cabbage leaves were”, “cells of the bioassay trays.” for “cells of bioassay trays.”, “A single third instar larva” for “A single second instar larva”, “were recorded at 72 h” for “were recorded 72 h”, “in Table E.” for “in Table F.”

The subject of assay [2] is Helicoverpa armigera. Briefly: Diet incorporation method against Helicoverpa armigera (Example A). The settings on record: single compound, 0.2 ppm, 96 h. The procedure: The diet incorporation method was used, in which semi-synthetic diet was incorporated into the test solutions consisting either of the single compounds or respective compound combinations, when the temperature was approximately 50° C. in the bio-assay containers, then stirred thoroughly for proper mixing and allowed to cool for 30 min. The solidified diet was cut into equal pieces, and then each piece was transferred into one cell of a bio-assay tray. A single starved third instar larva was released into each of these cells of the bio-assay trays and the tray was covered with a lid. The bio-assay trays were kept under laboratory conditions at a temperature of 25° C. and relative humidity of 70%. Observations on dead, moribund and live larvae were recorded 96 h after the release of the larvae. Percent mortality was calculated by combining dead and moribund larvae and comparing the result to the one of the untreated control. The results are shown for the compound of formula (I-III) in Table A.

The subject of a further assay is Pyricularia oryzae. The settings on record: single compound, 100 ppm, preventive, rice.
The next assay has as its system Alternaria solani. The experiment in a line: Preventive glasshouse test against Alternaria solani in tomato (Example G). The settings on record: single compound. The procedure:
The single compounds or respective compound combinations were dissolved in 2% dimethyl sulfoxide/acetone and then mixed with water containing emulsifier to a calibrated spray volume of 50 mL. The test solutions were poured into spray bottles for further applications.
To test the preventive activity, healthy young tomato plants, raised in the greenhouse, were sprayed with the active compound preparation at the stated application rates inside the spray cabinets using hollow cone nozzles. One day after treatment, the plants were inoculated with a spore suspension containing 0.24×10^6 Alternaria solani inoculum and 2% Malt. The inoculated plants were then kept in a greenhouse chamber at a temperature of 22-24° C. and 90-95% relative humidity for disease expression.
A visual assessment of the performance of the single compounds or compound combinations was carried out by rating the disease severity (0-100% scale) on treated plants 3, 7, 10 and 15 days after application. Efficacy (% control) of the single compounds and mixtures was calculated by comparing the disease rating in the treatment with the one of the untreated control. The compounds were also assessed for their plant compatibility by recording symptoms like necrosis, chlorosis and stunting. The results have been described for the compound of formula (I-III) in Table G.

Assay [3] concerns Spodoptera litura. Briefly: Diet incorporation method against Spodoptera litura (Example B). The settings on record: single compound, 1 ppm, 96 h. As for the experimental part: The diet incorporation method was used, in which semi-synthetic diet was incorporated into the test solution consisting either of the single compound or respective compound combinations, when the temperature was approximately 50° C. in the bioassay containers, then stirred thoroughly for proper mixing and allowed to cool for 30 min. The solidified diet was cut into equal pieces, and then each piece was transferred into one cell of the bio-assay trays. A single starved third instar larva was released into each of these cells of the bio-assay trays and the tray was covered with a lid. The bio-assay trays were kept under laboratory conditions at a temperature of 25° C. and relative humidity of 70%. Observations on dead, moribund and live larvae were recorded 96 h after the release. Percent mortality was calculated by combining dead and moribund larvae and comparing the result with the one of the untreated control. The results are shown for the compound of formula (I-III) in Table B.

Assay [4] concerns Helicoverpa armigera. The experiment in a line: Leaf dip method (tomato leaves) with Bacillus thuringiensis against Helicoverpa armigera (Example D). The settings on record: single, 0.1 ppm, 72 h. The procedure: as §1, with “desired test concentrations. Tomato leaves were” for “desired test concentration. Cabbage leaves were”, “cells of the bioassay trays.” for “cells of bioassay trays.”, “A single third instar larva” for “A single second instar larva”, “were recorded at 72 h” for “were recorded 72 h”, “comparing the result to the” for “comparing the results to the”, “in Table D.” for “in Table F.”

Several values for one entry are separate records, joined by “and”; a condition that tells them apart may be missing. Equal values may be shown once.

Regarding “6-(3-bromo-1-(3-chloropyridin-2-yl)-1H-pyrazole-5-carboxamido)-N-isopropyl-5-methylpyrazolo[1,5-a]pyridine-7-carboxamide [Compound (I-III)]”, the “Observed Efficacy (%)” value in the assay with Plutella xylostella is reported as 12.5%; in the assay with Spodoptera litura [1] it was 0%; with Helicoverpa armigera [2], 12.5%; in the assay with Pyricularia oryzae it was 15%; with Alternaria solani (100 ppm), 30%; in the assay with Alternaria solani (500 ppm), 32%. Further, the “Observed Efficacy (%)” value is 12.5% and 25% in the assay on Spodoptera litura [3]; 12.5% in the assay on Helicoverpa armigera [4].
